Experiment: [14C]-QBS10072S distribution by quantitative whole-body autoradiography in mice with intracranial LN229 tumors
Assay type: in vivo, mouse
Details: 5 mg/kg IV
Description: Athymic mice with intracranial implanted LN229 cells received a single IV dose of 5 mg/kg and 200 μCi/kg [14C]-QBS10072S into the tail vein using the formulation described above. Animals (one per time point) were sacrificed one, eight, and 24 hours post-dose, and frozen in a hexane/solid carbon dioxide bath for at least 10 minutes. The carcasses were processed as described for quantitative whole-body autoradiography. Briefly, sagittal sections (~ 40 μm thick) were cut using a microtome, mounted, and exposed to a [14C]-sensitive phosphor imaging plate for four days. The images were scanned and quantitated by image densitometry using MCID image analysis software. The concentrations of radioactivity were expressed as the μg equivalents of test article per gram sample (μg equiv/g). The upper and lower limits of quantification were 550 and 0.008 μg equiv/g, respectively (QPS, Newark, DE).

## Cc1ccc(N(CCCl)C[14CH2]Cl)cc1C[C@H](N)CC(=O)O.Cl.Cl [[14C]-QBS10072S, [chloroethyl-2-14C]-QBS10072S×2HCl]
Adipose (brown), 1 h
  Tissue Concentration: 2.528 µg equiv/g tissue
Adipose (brown), 8 h
  Tissue Concentration: 0.440 µg equiv/g tissue
Adipose (brown), 24 h
  Tissue Concentration: 0.577 µg equiv/g tissue
Adipose (white), 1 h
  Tissue Concentration: 0.409 µg equiv/g tissue
Adipose (white), 8 h
  Tissue Concentration: 0.348 µg equiv/g tissue
Adipose (white), 24 h
  Tissue Concentration: 0.381 µg equiv/g tissue
Adrenal Gland, 1 h
  Tissue Concentration: 2.700 µg equiv/g tissue
Adrenal Gland, 8 h
  Tissue Concentration: 0.638 µg equiv/g tissue
Adrenal Gland, 24 h
  Tissue Concentration: 0.533 µg equiv/g tissue
Blood (cardiac), 1 h
  Tissue Concentration: 2.204 µg equiv/g tissue
Blood (cardiac), 8 h
  Tissue Concentration: 0.581 µg equiv/g tissue
Blood (cardiac), 24 h
  Tissue Concentration: 0.734 µg equiv/g tissue
Bone, 1 h
  Tissue Concentration: 0.350 µg equiv/g tissue
Bone, 8 h
  Tissue Concentration: 0.165 µg equiv/g tissue
Bone, 24 h
  Tissue Concentration: 0.065 µg equiv/g tissue
Brain (cerebellum), 1 h
  Tissue Concentration: 0.395 µg equiv/g tissue
Brain (cerebellum), 8 h
  Tissue Concentration: 0.105 µg equiv/g tissue
Brain (cerebellum), 24 h
  Tissue Concentration: 0.120 µg equiv/g tissue
Brain (cerebrum), 1 h
  Tissue Concentration: 0.469 µg equiv/g tissue
Brain (cerebrum), 8 h
  Tissue Concentration: 0.109 µg equiv/g tissue
Brain (cerebrum), 24 h
  Tissue Concentration: 0.101 µg equiv/g tissue
Brain (medulla), 1 h
  Tissue Concentration: 0.403 µg equiv/g tissue
Brain (medulla), 8 h
  Tissue Concentration: 0.081 µg equiv/g tissue
Brain (medulla), 24 h
  Tissue Concentration: 0.118 µg equiv/g tissue
Cecum (contents), 1 h
  Tissue Concentration: 3.895 µg equiv/g tissue
Cecum (contents), 8 h
  Tissue Concentration: 24.266 µg equiv/g tissue
Cecum (contents), 24 h
  Tissue Concentration: 9.502 µg equiv/g tissue
Cecum, 1 h
  Tissue Concentration: 2.419 µg equiv/g tissue
Cecum, 8 h
  Tissue Concentration: 0.924 µg equiv/g tissue
Cecum, 24 h
  Tissue Concentration: 0.655 µg equiv/g tissue
Choroid Plexus, 1 h
  Tissue Concentration: 0.815 µg equiv/g tissue
Choroid Plexus, 8 h
  Tissue Concentration: 0.159 µg equiv/g tissue
Choroid Plexus, 24 h
  Tissue Concentration: 0.186 µg equiv/g tissue
Esophagus, 1 h
  Tissue Concentration: 1.211 µg equiv/g tissue
Esophagus, 8 h
  Tissue Concentration: 0.442 µg equiv/g tissue
Esophagus, 24 h
  Tissue Concentration: 0.565 µg equiv/g tissue
Harderian Gland, 1 h
  Tissue Concentration: 3.371 µg equiv/g tissue
Harderian Gland, 8 h
  Tissue Concentration: 0.468 µg equiv/g tissue
Harderian Gland, 24 h
  Tissue Concentration: 0.329 µg equiv/g tissue
Heart, 1 h
  Tissue Concentration: 2.165 µg equiv/g tissue
Heart, 8 h
  Tissue Concentration: 0.489 µg equiv/g tissue
Heart, 24 h
  Tissue Concentration: 0.480 µg equiv/g tissue
Kidney (outer medulla), 1 h
  Tissue Concentration: 6.281 µg equiv/g tissue
Kidney (outer medulla), 8 h
  Tissue Concentration: 1.372 µg equiv/g tissue
Kidney (outer medulla), 24 h
  Tissue Concentration: 1.164 µg equiv/g tissue
Large Intestine, 1 h
  Tissue Concentration: 1.437 µg equiv/g tissue
Liver, 1 h
  Tissue Concentration: 5.522 µg equiv/g tissue
Liver, 8 h
  Tissue Concentration: 0.674 µg equiv/g tissue
Liver, 24 h
  Tissue Concentration: 0.598 µg equiv/g tissue
Lung, 1 h
  Tissue Concentration: 2.943 µg equiv/g tissue
Lung, 8 h
  Tissue Concentration: 0.684 µg equiv/g tissue
Lung, 24 h
  Tissue Concentration: 0.620 µg equiv/g tissue
Mammary Gland Region, 1 h
  Tissue Concentration: 0.485 µg equiv/g tissue
Mammary Gland Region, 8 h
  Tissue Concentration: 0.173 µg equiv/g tissue
Mammary Gland Region, 24 h
  Tissue Concentration: 0.365 µg equiv/g tissue
Ovary, 1 h
  Tissue Concentration: 2.564 µg equiv/g tissue
Ovary, 8 h
  Tissue Concentration: 0.563 µg equiv/g tissue
Ovary, 24 h
  Tissue Concentration: 0.585 µg equiv/g tissue
Pancreas, 1 h
  Tissue Concentration: 3.270 µg equiv/g tissue
Pancreas, 8 h
  Tissue Concentration: 0.546 µg equiv/g tissue
Pancreas, 24 h
  Tissue Concentration: 0.442 µg equiv/g tissue
Pituitary Gland, 1 h
  Tissue Concentration: 1.689 µg equiv/g tissue
Pituitary Gland, 8 h
  Tissue Concentration: 0.468 µg equiv/g tissue
Pituitary Gland, 24 h
  Tissue Concentration: 0.128 µg equiv/g tissue
Salivary Gland, 1 h
  Tissue Concentration: 2.429 µg equiv/g tissue
Salivary Gland, 8 h
  Tissue Concentration: 0.428 µg equiv/g tissue
Salivary Gland, 24 h
  Tissue Concentration: 0.368 µg equiv/g tissue
Skeletal Muscle, 1 h
  Tissue Concentration: 1.123 µg equiv/g tissue
Skeletal Muscle, 8 h
  Tissue Concentration: 0.602 µg equiv/g tissue
Skeletal Muscle, 24 h
  Tissue Concentration: 0.627 µg equiv/g tissue
Skin, 1 h
  Tissue Concentration: 1.496 µg equiv/g tissue
Skin, 8 h
  Tissue Concentration: 0.479 µg equiv/g tissue
Skin, 24 h
  Tissue Concentration: 0.425 µg equiv/g tissue
Spinal Cord, 1 h
  Tissue Concentration: 0.480 µg equiv/g tissue
Spinal Cord, 8 h
  Tissue Concentration: 0.100 µg equiv/g tissue
Spinal Cord, 24 h
  Tissue Concentration: 0.120 µg equiv/g tissue
Thyroid, 1 h
  Tissue Concentration: 1.802 µg equiv/g tissue
Thyroid, 8 h
  Tissue Concentration: 0.374 µg equiv/g tissue
Thyroid, 24 h
  Tissue Concentration: 0.653 µg equiv/g tissue
Tumor High, 1 h
  Tissue Concentration: 2.836 µg equiv/g tissue
Tumor High, 8 h
  Tissue Concentration: 0.575 µg equiv/g tissue
Tumor High, 24 h
  Tissue Concentration: 0.479 µg equiv/g tissue
Tumor Low, 1 h
  Tissue Concentration: 1.245 µg equiv/g tissue
Tumor Low, 8 h
  Tissue Concentration: 0.162 µg equiv/g tissue
Tumor Low, 24 h
  Tissue Concentration: 0.240 µg equiv/g tissue
Tumor, 1 h
  Tissue Concentration: 1.961 µg equiv/g tissue
Tumor, 8 h
  Tissue Concentration: 0.427 µg equiv/g tissue
Tumor, 24 h
  Tissue Concentration: 0.275 µg equiv/g tissue
Urinary Bladder (contents), 1 h
  Tissue Concentration: 206.798 µg equiv/g tissue
Urinary Bladder (contents), 8 h
  Tissue Concentration: 1.716 µg equiv/g tissue
Urinary Bladder (contents), 24 h
  Tissue Concentration: 0.811 µg equiv/g tissue
Urinary Bladder, 1 h
  Tissue Concentration: 3.914 µg equiv/g tissue
Urinary Bladder, 8 h
  Tissue Concentration: 0.821 µg equiv/g tissue
Urinary Bladder, 24 h
  Tissue Concentration: 0.485 µg equiv/g tissue
Uterus, 1 h
  Tissue Concentration: 1.849 µg equiv/g tissue
Uterus, 8 h
  Tissue Concentration: 0.563 µg equiv/g tissue
Uterus, 24 h
  Tissue Concentration: 0.511 µg equiv/g tissue
Vagina, 1 h
  Tissue Concentration: 1.337 µg equiv/g tissue
Vagina, 8 h
  Tissue Concentration: 0.640 µg equiv/g tissue
Vagina, 24 h
  Tissue Concentration: 0.629 µg equiv/g tissue

Reference: paper PMC8482806, “A Novel Blood-Brain Barrier-Permeable Chemotherapeutic Agent for the Treatment of Glioblastoma” (Cureus, 2021)
